From BigSolDB 2.1

Conditions: in isopropanol

C=NCC#N
Conditions | solubility (mole fraction)
278.15 K | 0.00069
283.15 K | 0.000826
288.15 K | 0.00106
293.15 K | 0.00129
298.15 K | 0.00153
303.15 K | 0.00188
308.15 K | 0.00229
313.15 K | 0.00279
318.15 K | 0.00338
323.15 K | 0.00411
